Paper PMC8140080, “The lexicon of antimicrobial peptides: a complete set of arginine and tryptophan sequences” (Communications Biology, 2021)
Where a SMILES comes first, the peptide text is derived from it.

Legend:
S. aureus ATCC 6538 = format: cell-based, Staphylococcus aureus
Experimental: (§1) S. aureus ATCC 6538 and C. albicans ATCC 10231 were obtained from Oxoid (Basingstoke, UK), and P. aeruginosa PAO1 donated by the University of Nottingham. Bacteria were routinely grown using Mueller–Hinton broth or agar and yeast was grown using Sabaraud Dextrose broth or agar. Cultures were incubated aerobically on agar at 37 °C for 20 h or under the same conditions in broth with shaking at 200 rpm.
(§2) Planktonic cultures were obtained by inoculating single colonies from 18–20 h old agar cultures into 10 ml of sterile broth, followed by 20-h incubation. S. aureus and P. aeruginosa assays were performed using Mueller–Hinton broth and agar and C. albicans assays were performed using Sabaraud Dextrose broth and agar. […]
(§3) Peptide stock solutions of 800 µM were prepared by dissolving solid peptides (provided in pre-weighed aliquots by the supplier) in phosphate buffer solution (PBS) containing 5% (v/v) DMSO. […] Each polystyrene plate was then aerobically incubated at 37 °C for 18–20 h without shaking, before measuring OD600 using a spectrophotometer plate reader (Nanostar; BMG Labtech, Ayelsbury). […] The mean IC50 for each peptide was calculated from the results of four independent experiments, with a single technical replicate each. Specific activity was calculated by plotting IC50 (µM) multiplied by peptide length, against peptide length. […]

P. aeruginosa PAO1 = test: Antimicrobial assay (IC50 and MBC), broth microdilution; format: cell-based, Pseudomonas aeruginosa; conditions: Fig. 1a; range assayed 0.8-400 µM; b35 words are general, printed in the P. aeruginosa morphology study
Experimental: as §1, §2, §3

P. aeruginosa [1] = test: Scanning electron microscopy of peptide-treated bacteria; format: cell-based, Pseudomonas aeruginosa; conditions: 1 h, 37 °C, ~10^7 CFU/ml in PBS, three independent experiments
P. aeruginosa [2] = conditions: read-out: minimum IC50; cited from earlier work
Text: (§4) A second general conclusion is that overall activity increases consistently with length. […] We previously reported variable activity in a group of cationic and hydrophobic AMPs based on apoE-derived AMPs, and a range of similar peptides we tested.

P. aeruginosa [3] = test: Atomic force microscopy of peptide-treated bacteria; format: cell-based, Pseudomonas aeruginosa; conditions: 100 µM peptide, 2 min exposure, 37 °C; n = 6 cells
Experimental: A suspension of P. aeruginosa at ~10^7 CFU/ml in PBS was prepared as for SEM; 500 μl of this suspension was incubated with 500 μl of […] peptide (200 μM in PBS; 5% v/v DMSO) at 37 °C with shaking at 200 rpm for 45 min. As a negative control, 500 μl bacterial suspension was incubated with PBS containing 5% v/v DMSO. Samples of 50 μl were withdrawn from the suspensions at 2, 15 and 45 min for imaging by AFM. Chips were prepared by adsorbing 50 μl of poly-L-lysine onto a cleaved mica chip for 3 min. Excess poly-L-lysine was washed off by adding 10 × 200 μl aliquots of MilliQ water and excess water was removed using filter paper. Test samples were deposited onto the chips and left to adhere for 1-2 min, before further washing using 10 × 200 μl aliquots of MilliQ water, blotting off excess with filter paper, before leaving chips to air-dry overnight. Chips were scanned using a Bruker multimode 8 (Bruker, Billerica, USA) in ScanAsyst air mode. All images were taken at a resolution of 512 points per dimension unless stated otherwise, and are representative of single technical experiments. Images obtained were processed and different length measurements were performed using Gwyddion version 2.48 (http://gwyddion.net/). Measurements were taken of the long axis length, short axis length and maximum vertical height of the bacterium above the chip surface. […]

S. aureus = conditions: read-out: minimum IC50; cited from earlier work
Text: as §4

[4] = Transmission electron microscopy of peptide aggregates; format: physicochemical; conditions: single independent experiment
Experimental: Peptides were prepared at 800 µM in PBS with 5% v/v DMSO, and any excessively large aggregates or dust removed by centrifugation (2000 × g, 5 min). Further dilutions (80 µM) were prepared in PBS with 5% v/v DMSO, and the latter diluent was also used to prepare control (peptide-free) grids. Carbon film 200 mesh copper transmission electron microscope (TEM) grids (Agar Scientific Ltd. Stanstead, UK) were initially functionalized using a glow discharger (K100X; Quorum technologies Ltd. Laughton, UK) under a current of 25 mA for 30 sec. These were then placed onto 10 µl droplets of each test sample solution for 1 min, and then transferred onto 10 µl droplets of 1% w/v uranyl acetate for a further minute. Excess solution was removed using filter paper and sample grids were air dried for at least 1 h. Grids were imaged using a Tecnai™ T12 BioTwin TEM (FEI Company. Hillsboro, USA). Images were cropped and scale bars were added using ImageJ. Images are representative of single independent experiments.

Compound: CC(=O)N[C@@H](Cc1c[nH]c2ccccc12)C(=O)N[C@@H](Cc1c[nH]c2ccccc12)C(=O)N[C@@H](Cc1c[nH]c2ccccc12)C(=O)N[C@@H](CCCNC(=N)N)C(=O)N[C@@H](CCCNC(=N)N)C(=O)N[C@@H](CCCNC(=N)N)C(=O)N[C@@H](Cc1c[nH]c2ccccc12)C(N)=O [WWWRRRW] (Ac-WWWRRRW-NH2)
- IC50 (S. aureus ATCC 6538; ATCC 6538): 2.9 ± 0.3 µM

Compound: RRRRRRR [C-terminal amidation and N-terminal acetylation carried out for all peptides]
- inhibitory activity (in words) (P. aeruginosa PAO1): inactive
- bacterial morphology by SEM (P. aeruginosa [1]; 80 µM peptide): no discernible change in morphology
- bacterial morphology by SEM (P. aeruginosa [1]; 400 µM peptide): no discernible change in morphology

Compound: RRWYRWWR [Y-containing octapeptide similar to RWWRWWR, from the authors' earlier work]
- IC50 (P. aeruginosa [2]): 21 µM

Compound: RWWRWWR [C-terminal amidation and N-terminal acetylation]
- inhibitory activity (in words) (P. aeruginosa PAO1): one of the most active
- bacterial morphology by SEM (P. aeruginosa [1]; 80 µM peptide): formation of spheroid objects on the surface of the bacteria, indicative of membrane blebbing
- bacterial morphology by SEM (P. aeruginosa [1]; 400 µM peptide): dramatic reduction in the number of intact bacteria
- bacterial height by AFM (P. aeruginosa [3]): doubled
- mean bacterial width by AFM (P. aeruginosa [3]): decreased by a third
- IC50 (S. aureus): 14 µM

Compound: WRKWRKRWWWRKWRKRWW [ApoEdpL-W, 18mer apoE-derived antimicrobial peptide composed of W, R and K, from the authors' earlier work]
- IC50 (P. aeruginosa [2]): 7 µM

Compound: WRWWWWW [library heptapeptide forming substantial aggregates at 800 µM; C-terminal amidation and N-terminal acetylation]
- visible aggregates by TEM ([4]; 80 µM in PBS with 5% v/v DMSO): not
- visible aggregates by TEM ([4]; 800 µM in PBS with 5% v/v DMSO): Substantial visible aggregates were present

Compound: WWWRRRR [library heptapeptide of W and R; C-terminal amidation and N-terminal acetylation carried out for all peptides]
- increase of IC50 relative to WWWRRRW (S. aureus ATCC 6538; one residue changed, organism not given): 65 fold
